# Results from patent US7576222B2, “Alkynyl-containing tryptophan derivative inhibitors of TACE/matrix metalloproteinase” (priority 2004, dated 2009).
# Biological target: T1, catalytic domain of the recombinant TACE protein (Homo sapiens, UniProt P78536)
# T1 construct: The catalytic domain of the recombinant TACE protein was expressed and purified; made in house
# Assay: TACE FRET assay using TACE cat
# Assay type: biochemical
# Details: not given
# Summary of the method: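 Enzyme (1 ug/ml) pretreated with inhibitor for 10 min at room temperature in 50 mM Tris-HCl pH 7.4, 25 mM NaCl, 4% glycerol, 0.005% Brij 35, then started with FRET peptide Abz-[sequence]-Dpa (2 mM stock). Initial rate taken from fluorescence slope; IC50 fitted with floated Hill slope and background.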
# T1 sequence (P78536 223-474 limits assumed): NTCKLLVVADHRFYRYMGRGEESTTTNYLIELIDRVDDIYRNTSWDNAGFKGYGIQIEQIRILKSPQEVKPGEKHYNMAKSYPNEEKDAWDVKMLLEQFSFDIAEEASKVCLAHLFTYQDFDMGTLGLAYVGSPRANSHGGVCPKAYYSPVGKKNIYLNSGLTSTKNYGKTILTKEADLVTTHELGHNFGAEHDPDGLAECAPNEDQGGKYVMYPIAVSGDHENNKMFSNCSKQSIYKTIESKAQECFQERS
row,Structure (SMILES),IC50
1,"CC#CCOc1ccc(S(=O)(=O)N[C@@H](Cc2c(C)n(Cc3ccc(OC)cc3)c3ccc(Cl)cc23)C(=O)O)cc1 [Example 91, N-{[4-(but-2-ynyloxy)phenyl]sulfonyl}-5-chloro-1-(4-methoxybenzyl)-2-methyltryptophan]",190 nM
2,"CC#CCOc1ccc(S(=O)(=O)N[C@H](Cc2cn(C)c3ccccc23)C(=O)O)cc1 [Example 21, N-{[4-(but-2-ynyloxy)phenyl]sulfonyl}-1-methyl-D-tryptophan]",1400 nM
3,"CC#CCOc1ccc(S(=O)(=O)N[C@@H](Cc2c[nH]c3ccc(O)cc23)C(=O)O)cc1 [Example 5, N-{[4-(but-2-ynyloxy)phenyl]sulfonyl}-5-hydroxytryptophan]",1610 nM

# Same assay, conditions: TACE FRET assay, catalytic domain of recombinant TACE; read-out: TACE IC50
row,Structure (SMILES),IC50
1,"CC#CCOc1ccc(S(=O)(=O)N[C@H](Cc2cn(Cc3ccc(C)cc3)c3ccccc23)C(=O)O)cc1 [Example 26, N-{[4-(but-2-ynyloxy)phenyl]sulfonyl}-1-(4-methylbenzyl)-D-tryptophan]",3590 nM
2,"CC#CCOc1ccc(S(=O)(=O)N[C@H](Cc2cn(Cc3ccccc3)c3ccccc23)C(=O)O)cc1 [Example 25, 1-benzyl-N-{[4-(but-2-ynyloxy)phenyl]sulfonyl}-D-tryptophan]",2150 nM
3,"CC#CCOc1ccc(S(=O)(=O)N[C@@H](Cc2cn(Cc3ccc(OC)cc3)c3ccccc23)C(=O)O)cc1 [Example 19, N-{[4-(but-2-ynyloxy)phenyl]sulfonyl}-1-(4-methoxybenzyl)-L-tryptophan]",1190 nM

# Same assay, conditions: read-out: TACE Inhibition (%)
row,Structure (SMILES),inhibition at 1 µM
1,"CC#CCOc1ccc(S(=O)(=O)N[C@@H](Cc2c(C)n(Cc3ccc4c(c3)OCO4)c3ccc(Cl)cc23)C(=O)O)cc1 [Example 100, 1-(1,3-benzodioxol-5-ylmethyl)-N-{[4-(but-2-ynyloxy)phenyl]sulfonyl}-5-chloro-2-methyltryptophan]",55.6%
2,"CC#CCOc1ccc(S(=O)(=O)N[C@@H](Cc2c(C)n(CC3CCCCC3)c3ccc(OC)cc23)C(=O)O)cc1 [Example 213, N-{[4-(but-2-ynyloxy)phenyl]sulfonyl}-1-(cyclohexylmethyl)-5-methoxy-2-methyltryptophan]",60.5%
3,"CC#CCOc1ccc(S(=O)(=O)N[C@@H](Cc2cn(Cc3cccc(OC)c3)c3ccc(C(=O)O)cc23)C(=O)O)cc1 [Example 108, N-{[4-(but-2-ynyloxy)phenyl]sulfonyl}-5-carboxy-1-(3-methoxybenzyl)tryptophan]",9.93%
4,"CC#CCOc1ccc(S(=O)(=O)N[C@@H](Cc2cn(CC(C)C)c3ccc(C#N)cc23)C(=O)O)cc1 [Example 143, N-{[4-(but-2-ynyloxy)phenyl]sulfonyl}-5-cyano-1-isobutyltryptophan]",32.4%
5,"CC#CCOc1ccc(S(=O)(=O)N[C@@H](Cc2cn(Cc3cc(OC)cc(OC)c3)c3ccc(OC)cc23)C(=O)O)cc1 [Example 54, N-{[4-(but-2-ynyloxy)phenyl]sulfonyl}-1-(3,5-dimethoxybenzyl)-5-methoxytryptophan]",38%
6,"CC#CCOc1ccc(S(=O)(=O)N[C@@H](Cc2c(C)n(CC3CCCCC3)c3ccc(Cl)cc23)C(=O)O)cc1 [Example 102, N-{[4-(but-2-ynyloxy)phenyl]sulfonyl}-5-chloro-1-(cyclohexylmethyl)-2-methyltryptophan]",56.9%
7,"CC#CCOc1ccc(S(=O)(=O)N[C@@H](Cc2cn(Cc3cccc(OC)c3)c3ccc(Cl)cc23)C(=O)O)cc1 [Example 75, N-{[4-(but-2-ynyloxy)phenyl]sulfonyl}-5-chloro-1-(3-methoxybenzyl)tryptophan]",25%
8,"CC#CCOc1ccc(S(=O)(=O)N[C@@H](Cc2cn(Cc3ccc(Cl)cc3)c3ccc(Cl)cc23)C(=O)O)cc1 [Example 81, N-{[4-(but-2-ynyloxy)phenyl]sulfonyl}-5-chloro-1-(4-chlorobenzyl)tryptophan]",13.9%
9,"CC#CCOc1ccc(S(=O)(=O)N[C@@H](Cc2c(C)n(CC3CCC3)c3ccc(OC)cc23)C(=O)O)cc1 [Example 212, N-{[4-(but-2-ynyloxy)phenyl]sulfonyl}-1-(cyclobutylmethyl)-5-methoxy-2-methyltryptophan]",59.5%
10,"CC#CCOc1ccc(S(=O)(=O)N[C@@H](Cc2c(C)n(Cc3ccc(C#N)cc3)c3ccc(Cl)cc23)C(=O)O)cc1 [Example 98, N-{[4-(but-2-ynyloxy)phenyl]sulfonyl}-5-chloro-1-(4-cyanobenzyl)-2-methyltryptophan]",61%
11,"CC#CCOc1ccc(S(=O)(=O)N[C@@H](Cc2cn(Cc3cccc(C)c3)c3ccc(Cl)cc23)C(=O)O)cc1 [Example 73, N-{[4-(but-2-ynyloxy)phenyl]sulfonyl}-5-chloro-1-(3-methylbenzyl)tryptophan]",28%
12,"CC#CCOc1ccc(S(=O)(=O)N[C@@H](Cc2cn(Cc3ccc(F)cc3)c3ccc(OC)cc23)C(=O)O)cc1 [Example 60, N-{[4-(but-2-ynyloxy)phenyl]sulfonyl}-1-(4-fluorobenzyl)-5-methoxytryptophan]",43.5%
13,"CC#CCOc1ccc(S(=O)(=O)N[C@@H](Cc2c(C)[nH]c3ccccc23)C(=O)O)cc1 [Example 134, N-{[4-(but-2-ynyloxy)phenyl]sulfonyl}-2-methyltryptophan]",64.2%
14,"CC#CCOc1ccc(S(=O)(=O)N[C@@H](Cc2c(C)n(Cc3cccc(C)c3)c3ccc(OC)cc23)C(=O)O)cc1 [Example 187, N-{[4-(but-2-ynyloxy)phenyl]sulfonyl}-5-methoxy-2-methyl-1-(3-methylbenzyl)tryptophan]",78.8%
15,"CC#CCOc1ccc(S(=O)(=O)N[C@@H](Cc2cn(Cc3ccccc3)c3ccc(C(=O)O)cc23)C(=O)O)cc1 [Example 103, 1-benzyl-N-{[4-(but-2-ynyloxy)phenyl]sulfonyl}-5-carboxytryptophan]",6.16%
16,"CC#CCOc1ccc(S(=O)(=O)N[C@@H](Cc2cn(Cc3ccccc3C#N)c3ccc(OC)cc23)C(=O)O)cc1 [Example 64, N-{[4-(but-2-ynyloxy)phenyl]sulfonyl}-1-(2-cyanobenzyl)-5-methoxytryptophan]",40.9%
17,"CC#CCOc1ccc(S(=O)(=O)N[C@@H](Cc2c[nH]c3ccc(Cl)cc23)C(=O)O)cc1 [Example 133, N-{[4-(but-2-ynyloxy)phenyl]sulfonyl}-5-chlorotryptophan]",73.9%
18,"CC#CCOc1ccc(S(=O)(=O)N[C@@H](Cc2c(C)n(Cc3cc(F)cc(F)c3)c3ccc(OC)cc23)C(=O)O)cc1 [Example 200, N-{[4-(but-2-ynyloxy)phenyl]sulfonyl}-1-(3,5-difluorobenzyl)-5-methoxy-2-methyltryptophan]",80.5%
19,"CC#CCOc1ccc(S(=O)(=O)N[C@@H](Cc2cn(Cc3ccc(C(C)C)cc3)c3ccc(Cl)cc23)C(=O)O)cc1 [Example 82, N-{[4-(but-2-ynyloxy)phenyl]sulfonyl}-5-chloro-1-(4-isopropylbenzyl)tryptophan]",5.26%
20,"CC#CCOc1ccc(S(=O)(=O)N[C@@H](Cc2c(C)n(CC(C)C)c3ccc(OC)cc23)C(=O)O)cc1 [Example 210, N-{[4-(but-2-ynyloxy)phenyl]sulfonyl}-1-isobutyl-5-methoxy-2-methyltryptophan]",66.6%
21,"CC#CCOc1ccc(S(=O)(=O)N[C@@H](Cc2cn(Cc3cccc(F)c3)c3ccc(OC)cc23)C(=O)O)cc1 [Example 59, N-{[4-(but-2-ynyloxy)phenyl]sulfonyl}-1-(3-fluorobenzyl)-5-methoxytryptophan]",44.4%
